Reference: PubChem BioAssay AID1444 (PCMD, 2008)

Target: E3 ubiquitin-protein ligase Mdm2 (Homo sapiens) (UniProt Q00987)
Test: compounds raising luminescence in WT MDM2 cells – cell-based, wild-type MDM2, luciferase luminescence, dose response (AID 1444)
Conditions: MDM2 wild-type luciferase reporter cells, 2 h

E3 ubiquitin-protein ligase Mdm2 (Homo sapiens), sequence (Q00987 whole entry, looked up): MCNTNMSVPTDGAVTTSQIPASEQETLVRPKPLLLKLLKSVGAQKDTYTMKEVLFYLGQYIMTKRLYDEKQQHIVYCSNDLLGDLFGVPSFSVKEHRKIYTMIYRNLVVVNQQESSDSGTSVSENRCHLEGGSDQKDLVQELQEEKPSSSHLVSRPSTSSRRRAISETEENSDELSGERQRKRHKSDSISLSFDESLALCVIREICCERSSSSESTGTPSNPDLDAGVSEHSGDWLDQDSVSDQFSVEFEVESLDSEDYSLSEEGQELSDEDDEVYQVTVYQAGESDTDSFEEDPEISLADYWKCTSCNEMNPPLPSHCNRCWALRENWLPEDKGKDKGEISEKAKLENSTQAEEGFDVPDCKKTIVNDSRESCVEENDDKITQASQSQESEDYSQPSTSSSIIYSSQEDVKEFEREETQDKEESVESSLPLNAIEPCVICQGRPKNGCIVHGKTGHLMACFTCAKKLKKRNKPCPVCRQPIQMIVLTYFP

Compound: CC1=NN(c2cccc(C(=O)O)c2)C(=O)/C1=C\C=C/c1ccccc1
- EC50: 720 nM
